pIC50: −log10 of the molar value.
What follows are compounds tested against LRRK2 G2019S enzyme (Homo sapiens (Human), UniProt Q5S007, G2019S) (assay: LRRK2 G2019S TR-FRET biochemical assay (LRRKtide substrate)). Conditions: 134 μM ATP.
Description: Detection Reaction Conditions • 1× TR-FRET dilution buffer • 10 mM EDTA • 2 nM antibody • 23° C. reaction temperature • 10 μL total reaction volume
Compounds were prepared by initially diluting to 1 mM with DMSO. 35 μL of reference compound solution, 35 μL of test compound solution, and 35 μL HPE were successively added to the source plate (384-well assay plate, Labcyte). The plates were centrifuged at 2500 rpm for 1 minute and sealed in foil. […] The assay plate was centrifuged at 2500 rpm for 1 minute, and sealed with foil.
To perform the enzyme reaction, 5 μL of LRRKtide substrate and kinase mixture in assay buffer was added to all wells of the assay plate. The plate was centrifuged to concentrate the mixture at the bottom of the wells. The assay plate was incubated at 23° C. for 20 minutes. Following incubation, 5 μL of 2× ATP in assay buffer was added to each well, and plates were centrifuged to concentrate the mixture at the bottom of the wells. The plate was incubated at 23° C. for 60 minutes.
To perform the detection of the reaction, EDTA completely mixed in TR-FRET dilution buffer was added to antibody reagent. 10 μL of detection reagent was added to all wells of each well of the assay plate and the plate was centrifuged to concentrate the mixture at the bottom of the wells. The plate was then incubated at 23° C. for 60 minutes.

LRRK2 G2019S enzyme, sequence (Q5S007 whole entry G2019S): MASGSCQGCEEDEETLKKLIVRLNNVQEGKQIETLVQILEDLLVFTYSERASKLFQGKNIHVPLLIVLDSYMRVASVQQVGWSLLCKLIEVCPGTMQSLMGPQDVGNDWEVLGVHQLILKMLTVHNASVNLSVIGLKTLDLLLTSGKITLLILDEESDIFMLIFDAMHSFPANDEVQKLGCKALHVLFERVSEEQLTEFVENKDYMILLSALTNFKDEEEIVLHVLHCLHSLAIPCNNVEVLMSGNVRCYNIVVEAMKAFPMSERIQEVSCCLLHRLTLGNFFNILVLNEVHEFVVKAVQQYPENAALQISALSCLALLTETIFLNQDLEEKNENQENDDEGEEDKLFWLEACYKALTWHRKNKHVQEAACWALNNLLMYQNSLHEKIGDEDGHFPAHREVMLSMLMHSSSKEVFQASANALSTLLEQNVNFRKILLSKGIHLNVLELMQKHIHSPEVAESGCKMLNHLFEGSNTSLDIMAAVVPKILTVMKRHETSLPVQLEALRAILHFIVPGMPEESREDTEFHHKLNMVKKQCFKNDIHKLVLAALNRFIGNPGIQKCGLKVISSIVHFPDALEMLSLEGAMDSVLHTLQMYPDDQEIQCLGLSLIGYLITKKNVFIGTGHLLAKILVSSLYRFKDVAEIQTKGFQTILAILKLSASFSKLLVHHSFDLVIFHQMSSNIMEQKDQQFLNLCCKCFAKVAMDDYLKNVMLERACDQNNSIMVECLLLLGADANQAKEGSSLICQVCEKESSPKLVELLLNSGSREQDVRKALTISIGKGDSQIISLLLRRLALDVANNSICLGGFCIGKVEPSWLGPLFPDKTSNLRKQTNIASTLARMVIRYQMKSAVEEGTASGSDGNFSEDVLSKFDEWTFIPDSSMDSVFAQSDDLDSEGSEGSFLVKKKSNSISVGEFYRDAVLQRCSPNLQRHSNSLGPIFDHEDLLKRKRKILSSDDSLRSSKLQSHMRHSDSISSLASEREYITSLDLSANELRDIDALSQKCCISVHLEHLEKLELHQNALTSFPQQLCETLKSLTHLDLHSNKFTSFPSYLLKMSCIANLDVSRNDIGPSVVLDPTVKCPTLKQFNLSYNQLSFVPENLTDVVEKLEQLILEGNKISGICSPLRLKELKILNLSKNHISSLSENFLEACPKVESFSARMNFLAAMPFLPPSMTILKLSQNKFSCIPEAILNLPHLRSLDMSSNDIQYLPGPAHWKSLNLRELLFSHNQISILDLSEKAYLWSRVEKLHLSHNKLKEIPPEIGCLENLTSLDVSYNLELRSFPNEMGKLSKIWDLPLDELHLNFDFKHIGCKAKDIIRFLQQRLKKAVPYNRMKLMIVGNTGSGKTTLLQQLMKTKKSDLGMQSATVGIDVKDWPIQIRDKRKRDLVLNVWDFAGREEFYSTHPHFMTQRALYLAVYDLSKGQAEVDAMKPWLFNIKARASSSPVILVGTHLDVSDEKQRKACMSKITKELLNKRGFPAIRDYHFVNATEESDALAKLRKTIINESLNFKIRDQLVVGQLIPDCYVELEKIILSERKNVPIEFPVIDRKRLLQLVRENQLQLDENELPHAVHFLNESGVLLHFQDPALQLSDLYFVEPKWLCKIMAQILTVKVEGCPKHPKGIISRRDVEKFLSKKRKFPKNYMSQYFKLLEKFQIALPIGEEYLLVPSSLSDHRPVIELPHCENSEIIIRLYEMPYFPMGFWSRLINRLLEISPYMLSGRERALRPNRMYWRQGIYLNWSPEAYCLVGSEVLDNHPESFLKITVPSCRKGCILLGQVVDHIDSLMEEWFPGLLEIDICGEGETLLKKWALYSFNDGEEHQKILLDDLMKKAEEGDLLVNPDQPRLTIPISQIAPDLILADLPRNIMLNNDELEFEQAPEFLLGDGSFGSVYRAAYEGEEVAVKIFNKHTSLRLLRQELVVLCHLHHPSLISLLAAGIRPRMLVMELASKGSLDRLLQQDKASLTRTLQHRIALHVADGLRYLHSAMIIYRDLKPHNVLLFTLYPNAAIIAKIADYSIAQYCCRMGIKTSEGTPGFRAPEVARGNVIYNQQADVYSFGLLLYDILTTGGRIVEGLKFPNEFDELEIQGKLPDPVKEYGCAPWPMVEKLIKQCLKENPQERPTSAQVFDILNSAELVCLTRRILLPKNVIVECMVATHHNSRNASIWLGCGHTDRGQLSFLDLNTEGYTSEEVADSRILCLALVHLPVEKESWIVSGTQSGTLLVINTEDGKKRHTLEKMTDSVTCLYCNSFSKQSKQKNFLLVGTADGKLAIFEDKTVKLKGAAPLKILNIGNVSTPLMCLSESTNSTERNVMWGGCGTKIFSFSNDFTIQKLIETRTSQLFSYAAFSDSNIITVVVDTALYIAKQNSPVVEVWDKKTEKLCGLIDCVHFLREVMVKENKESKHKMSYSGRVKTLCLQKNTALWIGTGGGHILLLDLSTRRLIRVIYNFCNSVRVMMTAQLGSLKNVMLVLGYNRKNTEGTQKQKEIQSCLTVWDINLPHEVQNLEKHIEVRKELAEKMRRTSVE

| pIC50 | Compound |
| --- | --- |
| > 7.52 | Cc1nn(C(C)(C)C#N)cc1Nc1ncc(C(F)(F)F)c(NC2C3CC2C3)n1 (centres unmarked) [Compound 5] |
| > 7.52 | CCNc1nc(Nc2cc(N3CCCS3(=O)=O)nn2C2CC2)ncc1C(F)(F)F [Compound 154] |
| > 7.52 | CNc1nc(Nc2cn(C3C[C@@H]3C#N)nc2C2CC2)ncc1C(F)(F)F (single isomer, unassigned) [Compound 208] |
| > 7.52 | CCNc1nc(Nc2cn(C3CS(=O)(=O)C3)nc2C2CC2)ncc1Br [Compound 96] |
| > 7.52 | [2H]C([2H])([2H])C([2H])([2H])Nc1nc(Nc2cn(C(C)(C)C#N)nc2C)ncc1C(F)(F)F [Compound 89] |
| > 7.52 | CNc1nc(Nc2cc(C(C)(C)c3ncccn3)nn2C2CC2)ncc1C(F)(F)F [Compound 128] |
| > 7.52 | CCNc1nc(Nc2cn(C3(CF)CCOC3=O)nc2C)ncc1C(F)(F)F (single isomer, unassigned) [Compound 217] |
| > 7.52 | CNc1nc(Nc2cnn(C3C[C@@H]4[C@H](C3)C4(F)F)c2Cl)ncc1C(F)(F)F (some centres unmarked) [Compound 9] |
| > 7.52 | CCNc1nc(Nc2cn([C@H]3C[C@H](C#N)C3)nc2C)ncc1C(F)(F)F [Compound 35A] |
| > 7.52 | CCNc1nc(Nc2cnn3c2CC(n2nccn2)C3)ncc1C(F)(F)F (single isomer, unassigned) [Compound 54B] |
| > 7.52 | CCNc1nc(Nc2cn([C@H]3C[C@@H](C#N)C3)nc2C)ncc1C(F)(F)F [Compound 35B] |
| > 7.52 | CNc1nc(Nc2cn(C3C[C@@H]4C[C@@H]4C3)nc2C)ncc1C(F)(F)F (some centres unmarked) [Compound 3] |
| > 7.52 | CNc1nc(Nc2cn(C3(C)CCCC3=O)nc2C)ncc1C(F)(F)F (centres unmarked) [Compound 195] |
| > 7.52 | CNc1nc(Nc2cn(C3CC3)nc2[C@H]2C[C@H](n3nccn3)C2)ncc1C(F)(F)F [Compound 198] |
| > 7.52 | CCNc1nc(Nc2cn(S(C)(=O)=O)nc2C2CC2)ncc1C(F)(F)F [Compound 112] |
| > 7.52 | CCNc1nc(Nc2cnn3c2CC2(COC2)C3)ncc1C(F)(F)F [Compound 20] |
| < 7.22 | CNc1nc(Nc2cc(C3(C)CCn4ccnc43)nn2C2CC2)ncc1C(F)(F)F (centres unmarked) [Compound 177] |
| > 7.52 | CNc1nc(Nc2cn(C3C[C@@H]4[C@H](C3)C4(F)F)nc2C)ncc1C(F)(F)F (some centres unmarked) [Compound 12] |
| 7.22 to 7.52 | CCNc1nc(Nc2ccnn2[C@H]2C[C@@H](n3ccnn3)C2)ncc1C(F)(F)F [Compound 189] |
| 7.22 to 7.52 | CCNc1nc(Nc2cc(CN3CCCC3=O)nn2C2CC2)ncc1C(F)(F)F [Compound 149] |
| > 7.52 | [2H]C([2H])([2H])n1cnc(C(C)(C)n2cc(Nc3ncc(Br)c(OC)n3)c(C)n2)n1 [Compound 33] |
| > 7.52 | CNc1nc(Nc2cn(C3(C)CCOC3=O)nc2C)ncc1C(F)(F)F (single isomer, unassigned) [Compound 124] |
| 7.22 to 7.52 | CNc1nc(Nc2cnn(C3CCCC3(C)O)c2C)ncc1C(F)(F)F (single isomer, unassigned) [Compound 30] |

| pIC50 | Compound |
| --- | --- |
| > 7.52 | CCNc1nc(Nc2cc([C@H]3C[C@H]3C(=O)OCC)nn2C2CC2)ncc1C(F)(F)F [Compound 169] |
| > 7.52 | CCNc1nc(Nc2cc(C(C)(C)OC)nn2C2CCC2)ncc1C(F)(F)F [Compound 192] |
| > 7.52 | [2H]C([2H])([2H])N1CCC(n2cc(Nc3ncc(C(F)(F)F)c(NCC)n3)c(C)n2)(C([2H])([2H])[2H])C1=O (single isomer, unassigned) [Compound 24] |
| > 7.52 | [2H]C([2H])([2H])n1nc(C2(C)CCOC2=O)cc1Nc1ncc(C(F)(F)F)c(NC)n1 (centres unmarked) [Compound 175] |
| > 7.52 | [2H]C([2H])([2H])n1nc(C(C)(C)n2nccn2)cc1Nc1ncc(Br)c(NC2CC2)n1 [Compound 79] |
| > 7.52 | CCNc1nc(Nc2cn(C3C[C@H]3C#N)nc2C2CC2)ncc1Br (single isomer, unassigned) [Compound 215] |
| > 7.52 | CCNc1nc(Nc2ccnn2[C@H]2C[C@H](n3nccn3)C2)ncc1C(F)(F)F [Compound 182, N2-(1-((1R,3R)-3-(2H-1,2,3-triazol-2-yl)cyclobutyl)-1H-pyrazol-5-yl)-N4-ethyl-5-(trifluoromethyl)pyrimidine-2,4-diamine] |
| > 7.52 | CCNc1nc(Nc2cn(C(C)(C)c3nncs3)nc2C)ncc1C(F)(F)F [Compound 85] |
| 7.22 to 7.52 | CNc1nc(Nc2cnn(C3CCCC3(C)O)c2C)ncc1C(F)(F)F (single isomer, unassigned) [Compound 31] |
| > 7.52 | Cc1nn(C(C)(C)C#N)cc1Nc1ncc(C(F)(F)F)c(NC2(C)CC2)n1 [Compound 84] |
| > 7.52 | CCNc1nc(Nc2cnn3c2CC(n2ccnn2)C3)ncc1C(F)(F)F (centres unmarked) [Compound 61] |
| > 7.52 | CCNc1nc(Nc2cn(C3(C)CCOC3=O)nc2C2CC2)ncc1Br (single isomer, unassigned) [Compound 115] |
| > 7.52 | [2H]C([2H])([2H])n1nc(C(C)(C)n2cccn2)cc1Nc1ncc(C(F)(F)F)c(NC2CC2)n1 [Compound 71] |
| > 7.52 | CNc1nc(Nc2cnn(C3C[C@@H]4[C@H](C3)C4(F)F)c2C)ncc1C(F)(F)F (some centres unmarked) [Compound 11] |
| > 7.52 | CCNc1nc(Nc2cc(C(C)(C)n3nccn3)nn2C)ncc1C(F)(F)F [Compound 57] |
| > 7.52 | Cc1nn(C2(C)CCOC2=O)cc1Nc1ncc(C(F)(F)F)c(C2CC2)n1 (single isomer, unassigned) [Compound 120] |
| < 7.22 | CNc1nc(Nc2cn(C3C[C@@H]4[C@H](C3)C4(F)F)nc2Cl)ncc1C(F)(F)F (some centres unmarked) [Compound 10] |
| > 7.52 | CCNc1nc(Nc2ccnn2[C@H]2C[C@@H](O)C2)ncc1C(F)(F)F [Compound 179] |
| > 7.52 | CCNc1nc(Nc2cn(Cc3ccon3)nc2C2CC2)ncc1C(F)(F)F [Compound 94] |
| > 7.52 | [2H]C([2H])([2H])n1nc(C2(C)CCOC2=O)cc1Nc1ncc(C(F)(F)F)c(NCC)n1 (centres unmarked) [Compound 173] |
| > 7.52 | Cc1nn(C(C)(C)C#N)cc1Nc1nc2c(c(C3CC3)n1)C1(CC1)CN2 [Compound 19] |
| > 7.52 | CCNc1nc(Nc2cc([C@H]3C[C@@H]3C#N)nn2C2CC2)ncc1C(F)(F)F [Compound 152] |
| > 7.52 | CCNc1nc(Nc2cc([C@H]3C[C@H]3C(N)=O)nn2C2CC2)ncc1C(F)(F)F [Compound 170] |

| pIC50 | Compound |
| --- | --- |
| > 7.52 | CNc1nc(Nc2cnn3c2CC2(CC2)C3)ncc1C(F)(F)F [Compound 8] |
| > 7.52 | CCNc1nc(Nc2cc(C(C)(C)n3nccn3)nn2C(C)C)ncc1C(F)(F)F [Compound 86] |
| > 7.52 | CCNc1nc(Nc2cc([C@@]34C[C@@H]3COC4=O)nn2C2CC2)ncc1C(F)(F)F [Compound 162, (1R,5S)-1-[1-cyclopropyl-5-[[4-(ethylamino)-5-(trifluoromethyl)pyrimidin-2-yl]amino]pyrazol-3-yl]-3-oxabicyclo[3.1.0]hexan-2-one] |
| > 7.52 | CCNc1nc(Nc2cc(C(=O)N(C)C)nn2C2CC2)ncc1C(F)(F)F [Compound 130] |
| > 7.52 | CCNc1nc(Nc2cn(C(C)(C)c3ccn(C)n3)nc2C)ncc1C(F)(F)F [Compound 18] |
| > 7.52 | CCNc1nc(Nc2cn(C3(C)CCOC3=O)nc2C)ncc1C(F)(F)F (single isomer, unassigned) [Compound 125] |
| > 7.52 | CCNc1nc(Nc2cc(C(C)(C)n3nccn3)nn2C2CCC2)ncc1C(F)(F)F [Compound 127] |
| > 7.52 | COc1nc(Nc2cn(Cc3cc[nH]n3)nc2C2CC2)ncc1Br [Compound 95] |
| 7.22 to 7.52 | [2H]C([2H])([2H])n1nc(C2CCOCC2)cc1Nc1ncc(C(F)(F)F)c(NCC)n1 [Compound 193] |
| > 7.52 | CCNc1nc(Nc2cc(C(C)(C)S(C)(=O)=O)nn2C2CC2)ncc1C(F)(F)F [Compound 139] |
| > 7.52 | CNc1nc(Nc2cn(C(C)(C)c3ncn(C)n3)nc2C)ncc1C(F)(F)F [Compound 14] |
| > 7.52 | CNc1nc(Nc2cc(C3(C)CCOC3=O)nn2C2CC2)ncc1C(F)(F)F (centres unmarked) [Compound 156] |
| > 7.52 | CCNc1nc(Nc2cc(C(C)n3nccn3)nn2C2CC2)ncc1Br (centres unmarked) [Compound 146] |
| > 7.52 | CCNc1nc(Nc2cn(C3C[C@@H]3C#N)nc2C2CC2)ncc1C(F)(F)F (some centres unmarked) [Compound 107] |
| > 7.52 | CCNc1nc(Nc2cc([C@H]3C[C@H]3C#N)nn2C2CC2)ncc1C(F)(F)F [Compound 164] |
| > 7.52 | CCNc1nc(Nc2cn(C3CC3)nc2[C@H]2C[C@@H](n3nccn3)C2)ncc1C(F)(F)F [Compound 197] |
| > 7.52 | CCNc1nc(Nc2cnn3c2CC(n2nccn2)C3)ncc1C(F)(F)F (single isomer, unassigned) [Compound 54A] |
| > 7.52 | Cc1c(Nc2ncc(C(F)(F)F)c(NC3CC3)n2)cnn1[C@H]1C[C@H](C#N)C1 [Compound 21] |
| > 7.52 | [2H]C([2H])([2H])C([2H])([2H])n1nc(C(C)(C)n2nccn2)cc1Nc1ncc(C(F)(F)F)c(NCC)n1 [Compound 88] |
| 7.22 to 7.52 | CCNc1nc(Nc2ccnn2[C@H]2C[C@@H](n3nccn3)C2)ncc1C(F)(F)F [Compound 188] |
| > 7.52 | CNc1nc(Nc2cnn(C3CC4(COC4)C3)c2Cl)ncc1C(F)(F)F [Compound 13] |

| Compound | pIC50 |
| --- | --- |
| [2H]C([2H])([2H])c1nn(C(C)(C)C#N)cc1Nc1ncc(C(F)(F)F)c(NC)n1 [Compound 62] | > 7.52 |

— patent US9932325B2 (Denali Therapeutics Inc., priority 2015, dated 2018)
